Results reported in patent publication US11180474B2 (BRISTOL-MYERS SQUIBB COMPANY, priority 2016, dated 2021).

Legend:
human TLR8 = target: T1, human TLR8 (Homo sapiens, UniProt Q9NR97); assay: TLR8 inhibition reporter assay (HEK-Blue cells, SEAP reporter, R848 stimulation); type: cell-based; conditions: HEK-Blue cells overexpressing human TLR8, R848 15.9 μM
T1 construct: host or cells: HEK-Blue cells
T1 sequence (Q9NR97 27-1041): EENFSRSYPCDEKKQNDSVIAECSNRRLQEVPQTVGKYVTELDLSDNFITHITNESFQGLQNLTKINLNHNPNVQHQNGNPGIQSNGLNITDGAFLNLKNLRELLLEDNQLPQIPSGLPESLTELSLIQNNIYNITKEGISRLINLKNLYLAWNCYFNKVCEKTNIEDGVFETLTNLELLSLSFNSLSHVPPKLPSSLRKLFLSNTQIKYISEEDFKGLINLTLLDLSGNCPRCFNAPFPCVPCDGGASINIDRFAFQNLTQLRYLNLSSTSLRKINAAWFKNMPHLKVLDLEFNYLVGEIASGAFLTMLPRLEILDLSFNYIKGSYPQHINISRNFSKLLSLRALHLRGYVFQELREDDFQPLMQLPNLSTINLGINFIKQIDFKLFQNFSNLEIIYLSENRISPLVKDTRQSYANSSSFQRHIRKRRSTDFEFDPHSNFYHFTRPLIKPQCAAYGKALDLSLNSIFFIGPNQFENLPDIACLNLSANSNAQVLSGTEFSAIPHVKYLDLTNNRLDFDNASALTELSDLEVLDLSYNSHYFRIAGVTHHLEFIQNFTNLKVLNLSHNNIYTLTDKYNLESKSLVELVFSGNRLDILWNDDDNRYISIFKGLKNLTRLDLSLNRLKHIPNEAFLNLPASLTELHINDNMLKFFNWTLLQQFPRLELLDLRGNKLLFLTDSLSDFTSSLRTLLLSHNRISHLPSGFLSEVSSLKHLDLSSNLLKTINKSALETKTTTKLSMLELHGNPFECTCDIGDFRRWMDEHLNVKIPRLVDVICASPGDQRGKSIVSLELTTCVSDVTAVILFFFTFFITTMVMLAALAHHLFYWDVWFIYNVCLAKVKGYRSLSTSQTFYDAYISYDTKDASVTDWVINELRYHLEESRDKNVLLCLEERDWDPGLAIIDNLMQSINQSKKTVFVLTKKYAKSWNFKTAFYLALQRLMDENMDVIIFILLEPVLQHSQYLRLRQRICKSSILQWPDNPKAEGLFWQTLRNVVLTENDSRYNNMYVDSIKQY
Method: TLR7/8/9 Inhibition Reporter Assays
Briefly, cells are seeded into Greiner 384 well plates (15000 cells per well for TLR7, 20,000 for TLR8 and 25,000 for TLR9) and then treated with test compounds in DMSO to yield a final dose response concentration range of 0.05 nM-50 μM. […] After a 22 hour incubation at 37° C., 5% CO2, SEAP levels are determined with the addition of HEK-Blue™ Detection reagent (Invivogen), a cell culture medium that allows for detection of SEAP, according to manufacturer's specifications. The percent inhibition is determined as the % reduction in the HEK-Blue signal present in wells treated with agonist plus DMSO alone compared to wells treated with a known inhibitor.

human TLR7 = target: T2, human TLR7 (Homo sapiens, UniProt Q9NYK1); assay: TLR7 inhibition reporter assay (HEK-Blue cells, SEAP reporter, gardiquimod stimulation); type: cell-based; conditions: HEK-Blue cells overexpressing human TLR7, gardiquimod 7.5 μM
T2 construct: host or cells: HEK-Blue cells
T2 sequence (Q9NYK1 27-1049): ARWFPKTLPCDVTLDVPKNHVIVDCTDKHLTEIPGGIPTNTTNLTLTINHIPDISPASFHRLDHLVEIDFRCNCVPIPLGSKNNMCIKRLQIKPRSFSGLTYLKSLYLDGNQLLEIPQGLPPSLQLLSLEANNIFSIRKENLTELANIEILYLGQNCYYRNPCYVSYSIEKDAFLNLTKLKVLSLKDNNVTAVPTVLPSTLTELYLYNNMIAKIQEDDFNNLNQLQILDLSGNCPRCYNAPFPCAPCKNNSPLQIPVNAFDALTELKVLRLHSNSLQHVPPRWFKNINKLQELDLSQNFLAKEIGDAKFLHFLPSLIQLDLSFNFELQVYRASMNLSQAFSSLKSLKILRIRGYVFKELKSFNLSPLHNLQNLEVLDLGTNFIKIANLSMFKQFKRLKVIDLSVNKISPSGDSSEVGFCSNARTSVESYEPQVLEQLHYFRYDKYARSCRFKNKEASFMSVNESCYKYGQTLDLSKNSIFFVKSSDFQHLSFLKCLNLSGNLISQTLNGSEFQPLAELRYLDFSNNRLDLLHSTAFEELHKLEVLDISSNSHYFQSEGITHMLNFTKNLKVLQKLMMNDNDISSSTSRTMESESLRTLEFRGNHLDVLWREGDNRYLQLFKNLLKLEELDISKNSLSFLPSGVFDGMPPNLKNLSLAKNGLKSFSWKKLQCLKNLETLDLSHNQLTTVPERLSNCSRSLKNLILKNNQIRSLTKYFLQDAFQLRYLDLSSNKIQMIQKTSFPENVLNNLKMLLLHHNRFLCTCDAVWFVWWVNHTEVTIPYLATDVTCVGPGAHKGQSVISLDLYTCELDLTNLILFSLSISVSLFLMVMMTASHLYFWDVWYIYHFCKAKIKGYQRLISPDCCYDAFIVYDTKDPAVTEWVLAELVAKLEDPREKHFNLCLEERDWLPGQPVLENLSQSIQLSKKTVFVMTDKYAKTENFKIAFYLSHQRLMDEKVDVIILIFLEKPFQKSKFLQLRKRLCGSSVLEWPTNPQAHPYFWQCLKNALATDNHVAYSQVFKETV
In short: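 HEK-Blue reporter cells (15,000/well TLR7, 20,000 TLR8) exposed to compound over 0.05 nM–50 μM, agonist-stimulated (R848 for TLR8, gardiquimod for TLR7), 22 h at 37 °C, 5% CO2. SEAP read with HEK-Blue Detection; % inhibition relative to agonist-plus-DMSO and known-inhibitor controls.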

human TLR9 = target: T3, human TLR9 (Homo sapiens, UniProt Q9NR96); assay: TLR9 inhibition reporter assay (HEK-Blue cells, SEAP reporter, ODN2006 stimulation); type: cell-based; conditions: HEK-Blue cells overexpressing human TLR9, ODN2006 5 nM
T3 construct: host or cells: HEK-Blue cells
T3 sequence (Q9NR96 26-1032): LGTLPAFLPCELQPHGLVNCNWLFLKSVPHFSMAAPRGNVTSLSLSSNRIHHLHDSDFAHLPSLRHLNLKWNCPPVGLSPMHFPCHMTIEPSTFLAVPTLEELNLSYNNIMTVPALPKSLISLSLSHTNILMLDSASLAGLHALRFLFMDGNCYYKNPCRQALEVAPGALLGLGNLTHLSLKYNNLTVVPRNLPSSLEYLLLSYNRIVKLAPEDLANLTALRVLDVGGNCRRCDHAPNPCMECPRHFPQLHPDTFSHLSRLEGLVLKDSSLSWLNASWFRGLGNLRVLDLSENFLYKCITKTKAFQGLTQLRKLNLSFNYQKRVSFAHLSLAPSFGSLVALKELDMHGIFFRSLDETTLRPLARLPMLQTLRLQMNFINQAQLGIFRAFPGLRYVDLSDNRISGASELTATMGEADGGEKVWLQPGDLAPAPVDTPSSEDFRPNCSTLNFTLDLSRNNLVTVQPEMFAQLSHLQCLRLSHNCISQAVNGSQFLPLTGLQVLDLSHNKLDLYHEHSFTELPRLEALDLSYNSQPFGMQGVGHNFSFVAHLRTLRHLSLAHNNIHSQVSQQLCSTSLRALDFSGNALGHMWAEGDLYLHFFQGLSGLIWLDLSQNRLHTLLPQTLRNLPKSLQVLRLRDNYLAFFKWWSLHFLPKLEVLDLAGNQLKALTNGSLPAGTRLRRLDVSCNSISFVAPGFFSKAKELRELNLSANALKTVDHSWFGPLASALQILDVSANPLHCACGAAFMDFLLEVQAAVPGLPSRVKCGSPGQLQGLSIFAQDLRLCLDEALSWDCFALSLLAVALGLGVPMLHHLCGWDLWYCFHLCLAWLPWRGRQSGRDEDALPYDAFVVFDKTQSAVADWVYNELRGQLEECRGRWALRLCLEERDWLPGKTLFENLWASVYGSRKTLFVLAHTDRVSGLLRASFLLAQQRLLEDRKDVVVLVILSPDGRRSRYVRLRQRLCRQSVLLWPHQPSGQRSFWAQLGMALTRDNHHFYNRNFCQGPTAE
In short: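 Agonists used: gardiquimod 7.5 μM (TLR7), R848 15.9 μM (TLR8), ODN2006 5 nM (TLR9), added after 30 min room-temperature compound pre-treatment (0.05 nM–50 μM) of receptor-overexpressing HEK-Blue cells. SEAP reporter (NF-κB/AP-1 driven) read after 22 h at 37 °C; inhibition scaled between agonist+DMSO and reference-inhibitor wells.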

TLR9 = assay: In vivo mouse TLR9 PD model (CpG-ODN challenge, plasma IL-6); conditions: oral
Method: In Vivo Mouse TLR7 and TLR9 PD Model:
Adult male C57BL/6 mice were used for the experiments. Mice (7 to 10 per group) were randomized into different treatment groups based on body weight. Mice from the respective treatment groups were administered orally with vehicle or test compound. Thirty min after the oral administration of vehicle or test compound, mice were challenged with intraperitoneal injection of gardiquimod for TLR7 PD model and CpG-ODN for TLR9 PD model. Ninety minutes after gardiquimod injection and 120 minutes after CpG-ODN injection, mice were bled under isoflurane anaesthesia and plasma IL-6 level was estimated by using commercially available ELISA kit (BD Biosciences). At the end of experiment, mean cytokine data was plotted and one way ANOVA with Dunnett's test was performed to calculate the significance of test compound treated group vs. vehicle control group. Percent inhibition of cytokine induction was calculated for test compound treated group vs vehicle control group.

| IC50 (human TLR8) | IC50 (human TLR7) | IC50 (human TLR9) | SMILES | further results |
| --- | --- | --- | --- | --- |
| 378 nM | 1140 nM | – | CCc1c(-c2ccc(OC)c(OC)c2)[nH]c2ccc(C3CCN(C4CCN(Cc5c(C)[nH]c6ccccc56)CC4)CC3)cc12 [Example 129, 2-(3,4-dimethoxyphenyl)-3-ethyl-5-(1′-((2-methyl-1H-indol-3-yl)methyl)-[1,4′-bipiperidin]-4-yl)-1H-indole] | – |
| 555 nM | – | 409 nM | CNCCN1CCC(c2ccc3[nH]c(-c4ccc(OC)c(OC)c4)c(Cl)c3c2)CC1 [Example 119] | – |
| 347 nM | – | 260 nM | CNCCN1CCC(c2ccc3[nH]c(-c4ccc(OC)c(OC)c4)c(C#N)c3c2)CC1 [Example 118, 2-(3,4-dimethoxyphenyl)-5-(1-(2-(methylamino)ethyl)piperidin-4-yl)-1H-indole-3-carbonitrile-di-trifluoroacetic acid] | – |
| 178 nM | 586 nM | – | CCc1c(-c2ccc(OC)c(OC)c2)[nH]c2ccc(C3CCN(C4CCN(Cc5ccoc5)CC4)CC3)cc12 [Example 146, 2-(3,4-dimethoxyphenyl)-3-ethyl-5-(1′-(furan-3-ylmethyl)-[1,4′-bipiperidin]-4-yl)-1H-indole] | – |
| 978 nM | – | 1740 nM | COc1ccc(-c2[nH]c3ccc(C4CCN(Cc5ccncc5)CC4)cc3c2C)cc1OC [Example 20, 2-(3,4-dimethoxyphenyl)-3-methyl-5-(1-(pyridin-4-ylmethyl)piperidin-4-yl)-1H-indole] | – |
| – | – | 521 nM | CNCCN1CCC(c2ccc3[nH]c(-c4ccc(OC)c(OC)c4)c(C(C)C)c3c2)CC1 [Example 196, 2-(4-(2-(3,4-dimethoxyphenyl)-3-isopropyl-1H-indol-5-yl)piperidin-1-yl)-N-methylethan-1-amine] | % inhibition of IL6 (TLR9; dose 1 mg/kg): 47%; % inhibition of IL6 (TLR9; dose 3 mg/kg): 75%; % inhibition of IL6 (TLR9; dose 10 mg/kg): 83%; % inhibition of IL6 (TLR9; dose 30 mg/kg): 88%; % inhibition of IL6 (TLR9; dose 100 mg/kg): 62% |
| 25 nM | – | – | COc1ccc(-c2[nH]c3ccc(C4CCN(Cc5[nH]cnc5C)CC4)cc3c2C(C)C)cc1OC [Example 267, 2-(3,4-dimethoxyphenyl)-3-isopropyl-5-(1-((4-methyl-1H-imidazol-5-yl)methyl)piperidin-4-yl)-1H-indole] | – |
| 824 nM | 538 nM | – | COc1ccc(-c2[nH]c3ccc(C4CCN(C(=O)COC5CCN(C)CC5)CC4)cc3c2C(C)C)cc1OC [Example 315, 1-(4-(2-(3,4-dimethoxyphenyl)-3-isopropyl-1H-indol-5-yl)piperidin-1-yl)-2-((1-methylpiperidin-4-yl)oxy)ethan-1-one] | – |
| 330 nM | 735 nM | – | CCc1c(-c2ccc(OC)c(OC)c2)[nH]c2ccc(C3CCN(C4CCN(Cc5nccn5C)CC4)CC3)cc12 [Example 136, 2-(3,4-dimethoxyphenyl)-3-ethyl-5-(1′-((1-methyl-1H-imidazol-2-yl)methyl)-[1,4′-bipiperidin]-4-yl)-1H-indole] | – |
| – | 145 nM | 165 nM | CCCCN1CCC(N2CCC(c3ccc4[nH]c(-c5ccc(OC)c(OC)c5)c(C)c4c3)CC2)CC1 [Example 82, 5-(1′-butyl-[1,4′-bipiperidin]-4-yl)-2-(3,4-dimethoxyphenyl)-3-methyl-1H-indole] | – |
| – | 1950 nM | 70 nM | COc1ccc(-c2[nH]c3ccc(C4CCN(C5CCN(C6CCCC(C)C6)CC5)CC4)cc3c2C)cc1OC (stereo not shown) [Example 67, 2-(3,4-dimethoxyphenyl)-3-methyl-5-(1′-(3-methylcyclohexyl)-[1,4′-bipiperidin]-4-yl)-1H-indole] | – |
